Laboratory results as given in patent publication US9873880B2, “Engineering microorganisms” (DSM NUTRITIONAL PRODUCTS AG, priority 2013, dated 2018).

Columns and labels:
[1] = test system: Thraustochytrium sp. ONC-T18; test: Effects of antibiotics on the growth of ONC-T18 on ONC-T18-GM0 agar plates; assay type: cell-based
Experimental: Thraustochytrium sp. ONC-T18 was grown on agar plates (20 g agar per liter ONC-T18-GM0). One loop of inoculum of ONC-T18 was inoculated into 50 mL of liquid ONC-T18-GM0, and the culture was incubated in a shaker incubator at 25° C. at 250 rpm for 36 hours. Half a milliliter of the culture was transferred into a 1.5 mL tube and vortexed at full speed for 30 seconds to break down cell clusters, then diluted in 50 mL sterilized water. One hundred microliters of the resulting solution was spread onto each ONC-T18-GM0 medium plate. Each plate contained one of various antibiotics at one of various concentrations. Plates were incubated at 25° C. and emergence and development of colonies were observed daily.

[2] = test system: Thraustochytrium sp. ONC-T18; test: Effects of zeocin and salinity on colony numbers and colony diameters of ONC-T18; assay type: cell-based; settings: for colony numbers: 10 days; for colony numbers / colony growth rates (diameter in mm): mean of two plates
Experimental: One hundred μL of ONC-T18 cell suspension diluted at 1:500 from a 2-day culture were spread onto ONC-T18-GM0 plates containing various concentrations of antibiotic zeocin and sea salt. Inoculated plates were incubated in a 25° C. incubator for 10 days. The numbers of the colonies on each plate were counted. […] In plates containing 8.5 g/L sea salt without zeocin, only one colony was observed. In plates containing 18 g/L sea salt without zeocin, colony numbers were similar to that of plates containing 35 g/L sea salt without zeocin. […] Therefore, for this work, 18 g/L sea salt was used to make ONC-T18-GM0 for selection of ONC-T18 transformants transformed with constructs bearing a zeocin-resistant gene expression cassette.

[3] = test system: wild type strain of ONC-T18; test: Zeocin as mutagenic agent on ONC-T18 agar plates; assay type: cell-based, Thraustochytrium sp. ONC-T18
Experimental: The marine protist wild type strain of ONC-T18 was chosen as a model system to test if zeocin would be effective to induce mutagenesis in this strain. One full loop of the inocula of ONC-T18, growing in the agar plates containing ONC-T18-GM0 medium [5 g/L yeast extract, 5 g/L peptone, 10 g/L D(+)-glucose. 35 g/L artificial sea salt, 1.25 mg/L trace elements (5 g/L NaH2PO4.H2O, 3.15 g/L FeCl3.6H2O, 4.36 g/L Na2EDTA.2H2O, 0.6125 mg/L CuSO4.5H2O, 0.0597 g/L Na2MoO4.2H2O, 0.022 g/L ZnSO4.7H2O, 0.01 g/L CoCl2.6H2O, 0.18 g/L MnCl2.4H2O, 13 μg/L […], 2.7 mg/L NiSO4.6H2O, 1.84 mg/L Na3VO4 and 1.94 mg/L […]). 1.25 mg/L vitamins (1 mg/L vitamin B12, 1 mg/L biotin, 0.20 g/L thiamine HCl) and 20 g agar per liter], was inoculated into 50 mL liquid ONC-T18-GM0 medium, and incubated in a shaker incubator at 25° C. at 250 rpm for 36 hours. Half a milliliter of culture was transferred into a 1.5 mL tube and vortexed at full speed for 30 seconds, and then diluted in 50 mL sterilized water. One hundred microliters of the diluted inocula were respectively spread on the agar plates containing zeocin at various concentrations (0, 10, 30, 50, and 100 μg/mL). Plates were incubated at 25° C. incubator. The emergence and development of the colonies were observed daily. […] Under these conditions, zeocin was effective within the range of at least 10-200 μg/mL; higher concentrations may well also be effective. For example, concentrations in the range of 200-500 μg/mL or higher could work. […] Under the particular conditions utilized in the present Example, zeocin worked best at 50 μg/mL.

[4] = test system: parental strain (the wild type strain) ONC-T18; test: Zeocin sensitivity of the parental (wild type) strain, spotted colonies; assay type: cell-based, Thraustochytrium sp. ONC-T18; settings: ONC-T18-GM0 agar plates, 18 g/L sea salt, spotted cells
Experimental: (§1) A very small amount of inoculum of zeocin-resistant strains that had been transferred three times via colony passages on zeocin/ONC-T18-GM0 agar plates (as well as their parental strain or the wild type strain) was picked from colonies using a 10 μL pipette tip and re-suspended in 50 μL sterilized water in a 200 μL PCR tube. One μL of the cell suspension was spotted on ONC-T18-GM0 agar plates containing 18 g/L sea salt (15 g/L agar) and zeocin at a concentration ranging from 0 to 5000 μg/mL (Invitrogen, CA, USA). The diameters of the spotted colonies were measured on day 1, day 3, day 5, day 7, and day 8.

[5] = test system: transformed strains bearing the zeocin-resistance gene (from S. hidustanus) expression cassette; test: Zeocin sensitivity of transformed strains, spotted colonies; assay type: cell-based, Thraustochytrium sp. ONC-T18; settings: 18 g/L sea salt
Experimental: as §1

[6] = test system: wild type strains ONC-T18; test: Transgene stability assay, growth on zeocin plates after six colony passages; assay type: cell-based, Thraustochytrium sp. ONC-T18; settings: zeocin 200 μg/mL media
Excerpt: Transgene stability is important for certain applications of genetic engineering in industrial microbial strain improvement programs where microorganisms are used in pharmaceutical or industrial processes, and where product quantity and quality are paramount. We therefore carried out transgene stability estimate assays of transformed ONC-T18 strains. As for the growth rate assays described in above, inocula of four strains of each transformation as well as their ancestor wild type strains were spotted on ONC-T18-GM0 agar plates in the absence of zeocin and incubated at 25° C. for seven days. (Each transformation had been performed using one of the five different plasmid constructs, each of which bears various zeocin-resistant gene expression cassettes driven by a combination of different promoters and terminators). Then, using the same method, strains were transferred on a new fresh ONC-T18-GM0 agar plate and incubated at 25° C. for 7 days; colony passages were carried out 6 times. Finally, strains were transferred back onto ONC-T18-GM0 agar plates either without or with zeocin at a concentration of 200 μg/mL media.

[7] = cited from earlier work
[8] = agar plates, ONC-T18-GM0, 35 g/L artificial sea salt

SMILES: Cc1c(N)nc([C@H](CC(N)=O)NC[C@H](N)C(N)=O)nc1C(=O)N[C@H](C(=O)N[C@H](C)[C@@H](O)[C@H](C)C(=O)N[C@H](C(=O)NCCC1=N[C@@H](c2nc(C(=O)NCCCCN=C(N)N)cs2)CS1)[C@@H](C)O)[C@@H](O[C@@H]1O[C@@H](CO)[C@@H](O)[C@H](O)[C@@H]1O[C@H]1O[C@H](CO)[C@@H](O)[C@H](OC(N)=O)[C@@H]1O)c1cnc[nH]1 [Zeocin, zeocin]
- effect on growth of ONC-T18 (in words) [1]: significantly inhibited the growth
- zeocin concentration that completely inhibited growth of ONC-T18 ([2]; ONC-T18-GM0 agar plates containing 18 g/L sea salt): 30 µg/mL
- zeocin concentration needed for complete inhibition of ONC-T18 ([2]; ONC-T18-GM0 agar plates containing 35 g/L sea salt): 100 µg/mL
- colony numbers ([2]; salt 5 g/L, zeocin 10 μg/mL): 0
- colony growth rates (diameter in mm) ([2]; salt 5 g/L, zeocin 10 μg/mL): 0 mm
- colony numbers ([2]; salt 5 g/L, zeocin 30 μg/mL): 0
- colony growth rates (diameter in mm) ([2]; salt 5 g/L, zeocin 30 μg/mL): 0 mm
- colony numbers ([2]; salt 5 g/L, zeocin 50 μg/mL): 0
- colony growth rates (diameter in mm) ([2]; salt 5 g/L, zeocin 50 μg/mL): 0 mm
- colony numbers ([2]; salt 5 g/L, zeocin 100 μg/mL): 0
- colony growth rates (diameter in mm) ([2]; salt 5 g/L, zeocin 100 μg/mL): 0 mm
- colony numbers ([2]; salt 8.5 g/L, zeocin 10 μg/mL): 0
- colony growth rates (diameter in mm) ([2]; salt 8.5 g/L, zeocin 10 μg/mL): 0 mm
- colony numbers ([2]; salt 8.5 g/L, zeocin 30 μg/mL): 0
- colony growth rates (diameter in mm) ([2]; salt 8.5 g/L, zeocin 30 μg/mL): 0 mm
- colony numbers ([2]; salt 8.5 g/L, zeocin 50 μg/mL): 0
- colony growth rates (diameter in mm) ([2]; salt 8.5 g/L, zeocin 50 μg/mL): 0 mm
- colony numbers ([2]; salt 8.5 g/L, zeocin 100 μg/mL): 0
- colony growth rates (diameter in mm) ([2]; salt 8.5 g/L, zeocin 100 μg/mL): 0 mm
- colony numbers ([2]; salt 18 g/L, zeocin 10 μg/mL): 11
- colony growth rates (diameter in mm) ([2]; salt 18 g/L, zeocin 10 μg/mL): 4.1 mm
- colony numbers ([2]; salt 18 g/L, zeocin 30 μg/mL): 0
- colony growth rates (diameter in mm) ([2]; salt 18 g/L, zeocin 30 μg/mL): 0 mm
- colony numbers ([2]; salt 18 g/L, zeocin 50 μg/mL): 0
- colony growth rates (diameter in mm) ([2]; salt 18 g/L, zeocin 50 μg/mL): 0 mm
- colony numbers ([2]; salt 18 g/L, zeocin 100 μg/mL): 0
- colony growth rates (diameter in mm) ([2]; salt 18 g/L, zeocin 100 μg/mL): 0 mm
- colony numbers ([2]; salt 35 g/L, zeocin 10 μg/mL): 22.5
- colony growth rates (diameter in mm) ([2]; salt 35 g/L, zeocin 10 μg/mL): 4.1 mm
- colony numbers ([2]; salt 35 g/L, zeocin 30 μg/mL): 11
- colony growth rates (diameter in mm) ([2]; salt 35 g/L, zeocin 30 μg/mL): 1.9 mm
- colony numbers ([2]; salt 35 g/L, zeocin 50 μg/mL): 5
- colony growth rates (diameter in mm) ([2]; salt 35 g/L, zeocin 50 μg/mL): 0.6 mm
- colony numbers ([2]; salt 35 g/L, zeocin 100 μg/mL): 0
- colony growth rates (diameter in mm) ([2]; salt 35 g/L, zeocin 100 μg/mL): 0 mm
- concentration at which zeocin worked best as mutagen [3, 8]: 50 µg/mL
- concentration range in which zeocin was effective as mutagen [3, 8]: 10 to 200 µg/mL
- colonies seen per plate ([3]; zeocin 50 μg/mL, six days post inoculation): Only a few of colonies
- sensitivity of ONC-T18 cells to zeocin ([3]; zeocin 100 μg/mL): highly sensitive
- zeocin concentration on which the wild type strain grew [4]: ≤ 30 µg/mL
- growth of transformed strains ([5]; zeocin 5000 μg/mL): most strains grew remarkably slower
- growth of transformed strains ([5]; zeocin 30 to 1000 μg/mL): grew well
- growth of wild type strains [6]: none of the wild type strains were able to grow
- stability at high salt concentrations ([7]; Invitrogen): unstable
- water solubility ([7]; InvivoGen): water soluble
